Reference: patent US20110236504A1, “VERSATILE DISINFECTANT” (priority 2008, published 2011)
Where “and” joins values, the source holds several entries; their conditions need not be identical. Identical values can stand only once. Like-named read-outs stand apart in the source and are kept apart here.

Experiments:
[1] = test system: spores of Clostridium species; assay: Spore decay time and decay rate in dried soil, anaerobic culture; type: cell-based; conditions: for Spore decay rate, Spores of Clostridium species: 1 g dried soil in 10 ml, anaerobic culture
Experimental: (§1) Sands in a sandbox in a park and riverside soil were collected and mixed. The mixture was dried with heated air at 80 to 90° C. for 6 hours. Then, 1 g of the dried mixture was added into water and immediately filtered with a filter. A part of the filtrate was applied onto a glass slide, and spores were stained in a common procedure. The number of stained spores was counted and the number of spores contained in 1 g of soil was determined. Simultaneously, the spores were aerobically (Bacillus species proliferated) and anaerobically (Clostridium species proliferated) cultured, and each ratio was determined.
(§2) Then, into 10 ml of the sample disinfectant, 1 g of the dried soil was added. Some of the mixture was collected with time, and cultured aerobically and anaerobically. The number of growing colonies was counted to determine the decay rate of the spores.

[2] = test system: intestinal bacteria in feces; assay: Sterilization effect on specimen: feces; conditions: for The number of viable bacteria in specimen: Feces 1.5 × 10^11/g
[3] = test system: spores of Bacillus species; assay: Spore decay time and decay rate in dried soil, aerobic culture; type: cell-based; conditions: for Spore decay rate, Spores of Bacillus species: 1 g dried soil in 10 ml, aerobic culture
Experimental: as §1, §2

[4] = test system: pus mainly including antibiotic resistant MRSA; conditions: Pus (MRSA) 4 × 10^9/g
[5] = test system: pus mainly including antibiotic resistant Pseudomonas aeruginosa (MDRP); conditions: Pus (MDRP) 5 × 10^9/g
[6] = test system: viable bacteria in sputum; assay: Sterilization effect on specimen: sputum; conditions: Sputum 2 × 10^9/g
[7] = test system: viable bacteria on skin surface; assay: Application on hand skin, swab method; type: in vivo; conditions: for The number of viable bacteria on skin surface, relative value: before application = 100
Experimental: The disinfectant prepared in Preparation Example 3 was applied. Immediately after that, an area of 10 cm^2 was wiped with sterile gauze that was immersed into sterile physiological saline. Then, the number of bacteria was counted (Swab method). Next, different areas each having an area of 10 cm^2 were wiped in the applied area after 15 minutes, after 30 minutes, and after 60 minutes, and the viability of bacteria on the skin was determined. As controls, tap water and 70% ethanol were used. The number of bacteria before the application of disinfectants is regarded as 100 and relative values are shown.

[8] = test system: S. aureus 209P; assay: Metal ion or food preservative added to growth medium, viable count; type: cell-based; conditions: metal ion in growth medium
Experimental: (§3) To a standard medium for counting viable bacteria described below, each metal ion with varied concentration was added. […] Then, the number of viable bacteria was counted with time in a common procedure.
(§4) Sample bacteria: S. aureus 209P as a representative of Gram-positive bacteria • E. coli 0-157 as a representative of Gram-negative bacteria
(§5) Standard medium for counting viable bacteria: yeast extract 2.5 g, peptone 5 g, glucose 1 g, agar 15 g, pH 7.2

[9] = test system: E. coli O-157; assay: as above; type: cell-based; conditions: metal ion in growth medium
Experimental: as §3, §4, §5

[10] = test system: S. aureus 209P; assay: 100% death time on contact with solution; type: cell-based
From the text: Examples of the effect are shown below.

[11] = test system: E. coli O-157; assay: 100% death time on contact with solution
[12] = Investigation of aqueous L-ascorbic acid solution; type: cell-based
From the text: L-ascorbic acid (vitamin C) is essential for a living body and well fitted to body tissues. Addition of a small amount of L-ascorbic acid increases affinity to cellular tissues.

[13] = test system: viable bacteria in saliva; assay: Effect of gargle, viable bacteria in saliva; type: in vivo, persons; conditions: for number of viable bacteria in saliva, relative value: before gargle = 100, one value per person
Experimental: Next, the efficacy of the disinfectant was examined when it is used for a gargle. The number of viable bacteria was counted in 1 ml of saliva that was collected from each of three persons before a gargle. Then, each person gargled three times each for 20 seconds, that is, gargled for total of 1 minute, with the disinfectant of the present invention that was prepared in Preparation Example 6. Each saliva was collected immediately after the gargle and at 15 minutes, 30 minutes, and 60 minutes after the gargle. The number of viable bacteria was counted per 1 ml of the saliva, and the effect of gargle was determined. Here, the number of viable bacteria before gargle is regarded as 100, and relative values are shown.
As a control, each of two persons was gargled with tap water or 1000 ppm povidone-iodine in a similar way.

[14] = Cu^2+ 50 ppm + L-ascorbic acid 100 ppm
[15] = Cu^2+ 50 ppm + L-ascorbic acid 100 ppm + potassium sorbate 50 ppm
[16] = Cu^2+ 50 ppm + potassium sorbate 50 ppm
[17] = Cu^2+ 50 ppm + sodium lauryl sulfate 50 ppm
[18] = Cu^2+ 50 ppm + sodium lauryl sulfate 50 ppm + L-ascorbic acid 100 ppm
[19] = Cu^2+ 50 ppm + sodium lauryl sulfate 50 ppm + L-ascorbic acid 100 ppm + potassium sorbate 50 ppm

CCO [70% Ethanol, ethanol]
effect on the spores [1]: no effect | Spore decay rate, Spores of Clostridium species ([1]; 1 min contact): 0% | Spore decay rate, Spores of Clostridium species ([1]; 5 min contact): 0% | Spore decay rate, Spores of Clostridium species ([1]; 10 min contact): 0% | Spore decay rate, Spores of Clostridium species ([1]; 30 min contact): 0% | Spore decay rate, Spores of Clostridium species ([1]; 60 min contact): 0% | Spore decay rate, Spores of Clostridium species ([1]; 120 min contact): 0% | The number of viable bacteria in specimen ([2]; 5 min after addition): 5e+06 g⁻¹ | The number of viable bacteria in specimen ([2]; 15 min after addition): 3000 g⁻¹ | The number of viable bacteria in specimen ([2]; 30 min after addition): 4e+10 g⁻¹ | The number of viable bacteria in specimen ([2]; 60 min after addition): 4e+16 g⁻¹ | effect on bacteria in feces ([2]; feces): only slightly decreased | effect on the spores [3]: no effect | Spore decay rate, Spores of Bacillus species ([3]; 1 min contact): 0% | Spore decay rate, Spores of Bacillus species ([3]; 5 min contact): 0% | Spore decay rate, Spores of Bacillus species ([3]; 10 min contact): 0% | Spore decay rate, Spores of Bacillus species ([3]; 30 min contact): 0% | Spore decay rate, Spores of Bacillus species ([3]; 60 min contact): 0% | Spore decay rate, Spores of Bacillus species ([3]; 120 min contact): 0% | The number of viable bacteria in specimen ([4]; 5 min after addition): 5e+07 g⁻¹ | The number of viable bacteria in specimen ([4]; 15 min after addition): 200000 g⁻¹ | The number of viable bacteria in specimen ([4]; 30 min after addition): 80000 g⁻¹ | The number of viable bacteria in specimen ([4]; 60 min after addition): 50000 g⁻¹ | The number of viable bacteria in specimen ([5]; 5 min after addition): 7e+07 g⁻¹ | The number of viable bacteria in specimen ([5]; 15 min after addition): 500000 g⁻¹ | The number of viable bacteria in specimen ([5]; 30 min after addition): 10000 g⁻¹ | The number of viable bacteria in specimen ([5]; 60 min after addition): 10000 g⁻¹ | The number of viable bacteria in specimen ([6]; 5 min after addition): 1e+08 g⁻¹ | The number of viable bacteria in specimen ([6]; 15 min after addition): 2e+07 g⁻¹ | The number of viable bacteria in specimen ([6]; 30 min after addition): 6e+06 g⁻¹ | The number of viable bacteria in specimen ([6]; 60 min after addition): 5e+06 g⁻¹ | The number of viable bacteria in specimen ([6]; 60 min after addition, listed as 70% ethanol): 5e+06 g⁻¹ | number of bacteria on skin relative to before application ([7]; after 60 minutes): 45% | The number of viable bacteria on skin surface, relative value ([7]; after 15 min): 12 | The number of viable bacteria on skin surface, relative value ([7]; after 30 min): 20 | The number of viable bacteria on skin surface, relative value ([7]; after 60 min): 45 | The number of viable bacteria on skin surface, relative value ([7]; immediately after): 0 | The number of viable bacteria on skin surface, relative value ([7]; immediately after, listed as 70% ethanol): no bacteria was observed

O.O.O.O.O.O=S(=O)([O-])[O-].[Cu+2] [Cu^2+, CuSO4•5H2O]
(a) Antiproliferative activity, concentration [8]: 10~50 ppm | (b) Bacteriostatic activity, concentration [8]: 40~150 ppm | Acceleration of growth, concentration [8]: 5 ppm< | (a) Antiproliferative activity, concentration [9]: 5~30 ppm | (b) Bacteriostatic activity, concentration [9]: 25~120 ppm | (c) Bactericidal activity, concentration [9]: 100 ppm> | Acceleration of growth, concentration [9]: 5 ppm< | 100% death time [10, 14]: 60 min | 100% death time [10, 15]: 50 min | 100% death time [10, 16]: 75 min | 100% death time [10, 17]: 1.5 min | 100% death time [10, 18]: 1 min | 100% death time [10, 19]: 0.75 min | 100% death time ([10]; Cu^2+ ion 50 ppm alone): 90 min | 100% death time [11, 14]: 60 min | 100% death time [11, 15]: 45 min | 100% death time [11, 16]: 70 min | 100% death time [11, 17]: 1 min | 100% death time [11, 18]: 1 min | 100% death time [11, 19]: 0.5 min | 100% death time ([11]; Cu^2+ ion 50 ppm alone): 90 min

O=C1O[C@H]([C@@H](O)CO)C(O)=C1O [L-ascorbic acid]
antimicrobial activity of aqueous solution itself [12]: almost no antimicrobial activity

povidone-iodine
number of bacteria in saliva relative to before gargle ([13]; after 60 minutes): 30 to 40% | number of viable bacteria in saliva, relative value ([13]; after 15 min): 5 and 8 | number of viable bacteria in saliva, relative value ([13]; after 30 min): 18 and 20 | number of viable bacteria in saliva, relative value ([13]; after 60 min): 30 and 40 | number of viable bacteria in saliva, relative value ([13]; immediately after gargle): 2 | number of bacteria in saliva relative to before gargle ([13]; immediately after the gargle): 2%
